≈ marks a conversion by molar mass, not a printed value.
Legend:
[1] = system: MCF7; test: Antiproliferative activity against human MCF7 cells assessed as reduction in cell viability incubated for 48 hrs by CytoX cell viability assay; format: functional, cell-based; conditions: MCF7, 48 h
[2] = system: HeLa; test: Antiproliferative activity against human HeLa cells assessed as reduction in cell viability incubated for 48 hrs by CytoX cell viability assay; format: functional, cell-based
[3] = system: DU-145; test: Antiproliferative activity against human DU-145 cells assessed as reduction in cell viability incubated for 48 hrs by CytoX cell viability assay; format: functional, cell-based; conditions: DU-145, 48 h
[4] = system: HCT-15; test: Antiproliferative activity against human HCT-15 cells assessed as reduction in cell viability incubated for 48 hrs by CytoX cell viability assay; format: functional, cell-based; conditions: HCT-15, 48 h
[5] = system: K562; test: Antiproliferative activity against human K562 cells assessed as reduction in cell viability incubated for 48 hrs by CytoX cell viability assay; format: functional, cell-based; conditions: K562, 48 h
[6] = system: Hyalomma lusitanicum; test: Anti-insecticidal activity against Hyalomma lusitanicum Koch larvae assessed as inhibition of larval growth; format: functional; conditions: for LC50: Hyalomma lusitanicum, read-out: LD50 (the source's name)
[7] = system: HEp-2; test: Cytotoxicity against human HEp-2 cells assessed as inhibition of cell growth; format: functional; conditions: read-out: ED50 (the source's name)
[8] = system: Plasmodium falciparum; test: Antimalarial activity against chloroquine-sensitive Plasmodium falciparum D10 incubated for 48 hrs; format: functional, organism-based; conditions: D10, 48 h
[9] = system: Plasmodium falciparum; test: Antimalarial activity against […] incubated for 48 hrs; format: functional, organism-based; conditions: K1, 48 h
[10] = system: Plasmodium falciparum; test: Antimalarial activity against Sulfadoxine-sensitive Plasmodium falciparum FCR3; format: functional, organism-based
[11] = system: Plasmodium falciparum; test: Antimalarial activity against Sulfadoxine-sensitive Plasmodium falciparum HB3; format: functional, organism-based
[12] = system: Plasmodium falciparum; test: Antimalarial activity against Sulfadoxine-sensitive Plasmodium falciparum D6; format: functional, organism-based
[13] = system: Plasmodium falciparum; test: Antimalarial activity against Sulfadoxine-resistant Plasmodium falciparum W2; format: functional, organism-based
[14] = system: Plasmodium falciparum; test: Antimalarial activity against Sulfadoxine-resistant Plasmodium falciparum 3D7; format: functional, organism-based
[15] = Induction of apoptosis in human multiple myeloma cell; format: functional, cell-based
[16] = system: MDA-MB-231; test: Cytotoxicity against human MDA-MB-231 cells assessed as inhibition of cell growth incubated for 48 hrs by SRB assay; format: functional, cell-based; conditions: MDA-MB-231, 48 h
[17] = system: PC-3; test: Cytotoxicity against human PC-3 cells assessed as inhibition of cell growth incubated for 48 hrs by SRB assay; format: functional, cell-based; conditions: PC-3, 48 h
[18] = system: MCF7; test: Cytotoxicity against human MCF7 cells assessed as inhibition of cell growth incubated for 48 hrs by SRB assay; format: functional, cell-based; conditions: MCF7, 48 h
[19] = system: MG-63; test: Antiproliferative activity against human MG-63 cells assessed as inhibition of cell growth by MTT assay; format: functional, cell-based
[20] = system: MG-63; test: Antiproliferative activity against human MG-63 cells assessed as reduction in cell viability by SRB assay; format: functional, cell-based
[21] = system: A2780; test: Cytotoxicity against human A2780 cells assessed as inhibition of cell growth incubated for 96 hrs by SRB assay; format: toxicity, cell-based; conditions: A2780, 96 h

**Q.** For `Cc1cc(=O)c2c(O)cc(OC[C@@H]3CO3)cc2o1`, which IC50 [1] is on record?
**A.** Its IC50 is 36.2 µM.

**Q.** And the IC50 [2]?
**A.** Its IC50 is 11.9 µM.

**Q.** What about the IC50 [3] of the same compound?
**A.** Its IC50 is 7.58 µM.

**Q.** And the IC50 [4]?
**A.** Its IC50 is 17.5 µM.

**Q.** And the IC50 [5]?
**A.** Its IC50 is 8.03 µM.

**Q.** Which LD90 [6] does the source give for `C/C1=C\CC2(OC2(C)C)C(=O)C/C(C)=C/CC1` (stereo unspecified) here?
**A.** The LD90 was 2.43 mg/mL.

**Q.** And the LC50 [6]?
**A.** The LC50 was 1210 mg/L (≈ 5160 µM).

**Q.** For `Cc1cc(=O)c2c(OCC3CO3)cc(OCC3CO3)cc2o1` (stereo unspecified), which IC50 [1] is on record?
**A.** Its IC50 is 6.5 µM.

**Q.** What about the IC50 [2] of the same compound?
**A.** The IC50 was 5.4 µM.

**Q.** And the IC50 [3]?
**A.** The IC50 was 7.3 µM.

**Q.** What about the IC50 [4] of the same compound?
**A.** The IC50 was 12.1 µM.

**Q.** And the IC50 [5]?
**A.** Its IC50 is 6.3 µM.

**Q.** For `C[C@@H]1C[C@H]2OC(=O)[C@@H](C)[C@H]2[C@H](O)[C@]2(C)C(=O)C3OC3[C@@H]12` (stereo partly specified), which EC50 [7] is on record?
**A.** The EC50 was 0.11 mg/L (≈ 0.392 µM).

**Q.** Which IC50 [1] does the source give for `Cc1cc(=O)c2c(OC[C@H]3CO3)cc(OC[C@H]3CO3)cc2o1` here?
**A.** Its IC50 is 220 µM.

**Q.** What about the IC50 [2] of the same compound?
**A.** The IC50 was 11.4 µM.

**Q.** What about the IC50 [3] of the same compound?
**A.** Its IC50 is 15.6 µM.

**Q.** What about the IC50 [4] of the same compound?
**A.** Its IC50 is 229 µM.

**Q.** What about the IC50 [5] of the same compound?
**A.** Its IC50 is 7.86 µM.

**Q.** For `Fc1ccc([C@]23CC[C@](c4ccc(F)cc4)(OO2)[C@H]2O[C@H]23)cc1`, which IC50 [8] is on record?
**A.** The IC50 was 0.08 µM.

**Q.** What about the IC50 [9] of the same compound?
**A.** The IC50 was 0.08 µM.

**Q.** What about the IC50 [10] of the same compound?
**A.** Its IC50 is 0.01 µM.

**Q.** What about the IC50 [11] of the same compound?
**A.** The IC50 was 0.01 µM.

**Q.** And the IC50 [12]?
**A.** Its IC50 is 0.01 µM.

**Q.** And the IC50 [13]?
**A.** Its IC50 is > 10 µM.

**Q.** And the IC50 [14]?
**A.** Its IC50 is > 10 µM.

**Q.** For `C[C@@H]1C[C@H]2OC(=O)C(C3CO3)[C@H]2[C@H](O)[C@]2(C)C(=O)C3OC3[C@@H]12` (stereo partly specified), which EC50 [7] is on record?
**A.** The EC50 was 0.11 mg/L (≈ 0.357 µM).

**Q.** With `Cc1cc(=O)c2c(O)cc(OCC3CO3)cc2o1` (stereo unspecified) as the compound, how does the IC50 [1] read?
**A.** Its IC50 is 13.6 µM.

**Q.** What about the IC50 [2] of the same compound?
**A.** Its IC50 is 17.7 µM.

**Q.** What about the IC50 [3] of the same compound?
**A.** Its IC50 is 20.9 µM.

**Q.** What about the IC50 [4] of the same compound?
**A.** The IC50 was 18.3 µM.

**Q.** What about the IC50 [5] of the same compound?
**A.** Its IC50 is 143 µM.

**Q.** Which EC50 [15] does the source give for `COc1ccc2c(c1)C(=O)C1OC1(C)C2=O` (stereo unspecified) here?
**A.** Its EC50 is 3.5 µM.

**Q.** Which results are given for `CC(C)=C1C/C=C(\C)CCCC2(C)OC2C1=O` (stereo unspecified)?
**A.** LD90 [6]: 2.98 mg/mL; LC50 [6]: 2320 mg/L (≈ 9900 µM)

**Q.** For `C[C@]12CC[C@H]3[C@@H](C[C@@H]4O[C@@]45C[C@@H](O)CC[C@]35C)[C@@H]1CC(=O)OC2`, which IC50 [16] is on record?
**A.** Its IC50 is 39.8 µM.

**Q.** Which results are given for `Cc1cccc([C@]23CC[C@](c4cccc(C)c4)(OO2)[C@H]2O[C@H]23)c1`?
**A.** IC50 [8]: 0.08 µM; IC50 [9]: 0.08 µM; IC50 [10]: 0.01 µM; IC50 [11]: 0.01 µM; IC50 [12]: 0.01 µM; IC50 [13]: > 10 µM; IC50 [14]: > 10 µM

**Q.** For `C[C@]12CC[C@H]3[C@@H](C=CC4=CC(=O)[C@@H]5O[C@@H]5[C@@]43C)[C@@H]1CC(=O)OC2`, which IC50 [17] is on record?
**A.** The IC50 was > 100 µM.

**Q.** And the IC50 [18]?
**A.** The IC50 was > 100 µM.

**Q.** And the IC50 [16]?
**A.** Its IC50 is 16.4 µM.

**Q.** With `CC1=CCC[C@]2(C)CC(=O)C3(C[C@@H]12)OC3(C)C` (stereo partly specified) as the compound, how does the LD90 [6] read?
**A.** The LD90 was 1.91 mg/mL.

**Q.** What about the LC50 [6] of the same compound?
**A.** Its LC50 is 230 mg/L (≈ 981 µM).

**Q.** For `C[C@@H]1C[C@H]2OC(=O)C(CN(C)C)[C@H]2[C@H](O)[C@]2(C)C(=O)C3OC3[C@@H]12` (stereo partly specified), which EC50 [7] is on record?
**A.** Its EC50 is 0.11 mg/L (≈ 0.34 µM).

**Q.** With `C[C@@H]1CC[C@@H]([C@@]2(C)CO2)[C@H](OCc2ccccc2)C1` as the compound, how does the IC50 [19] read?
**A.** Its IC50 is 100 µM.

**Q.** And the IC50 [20]?
**A.** The IC50 was 100 µM.

**Q.** For `Cc1cc(=O)c2c(OC[C@H]3CO3)cc(OC[C@@H]3CO3)cc2o1`, which IC50 [1] is on record?
**A.** Its IC50 is 1.88 µM.

**Q.** What about the IC50 [2] of the same compound?
**A.** The IC50 was 1.77 µM.

**Q.** And the IC50 [3]?
**A.** The IC50 was 628 µM.

**Q.** And the IC50 [4]?
**A.** The IC50 was 9.59 µM.

**Q.** And the IC50 [5]?
**A.** The IC50 was 0.04 µM.

**Q.** With `C=C1C(=O)O[C@@H]2[C@H]3C(C)=CC[C@@]34O[C@@]4(C)CC[C@@H]12` [ARGLABIN] as the compound, how does the IC50 [21] read?
**A.** Its IC50 is 12.6 µM.

**Q.** Which IC50 [1] does the source give for `CC[C@@]1(O)C(=O)OCc2c1cc1n(c2=O)Cc2cc3ccccc3nc2-1` [CAMPTOTHECIN] here?
**A.** Its IC50 is 2.8 µM.

**Q.** And the IC50 [2]?
**A.** The IC50 was 6 µM.

**Q.** What about the IC50 [3] of the same compound?
**A.** Its IC50 is 1.99 µM.

**Q.** And the IC50 [4]?
**A.** The IC50 was 1.59 µM.

**Q.** And the IC50 [5]?
**A.** The IC50 was 2.69 µM.
